Measured values published in patent US5527785A, “Selectin receptor modulating compositions” (The Regents of the University of California, priority 1993, dated 1996).

How the values were obtained:
P-selectin [1] = experiment: HL60 cell adhesion to COS cells transfected with P-selectin cDNA; format: cell-based; conditions: at the concentrations tested in these adhesion assays (HL60 and PMN to selectin-transfected COS)
Protocol: COS cells were grown on coverslips in Dulbecco's minimal essential media with 10% fetal calf serum. After 72 hours, polysaccharides were added to the COS cell cultures to achieve final concentrations of 0, 0.1, 1.0, 10.0, 100.0 or 1000.0 μg/ml. Polysaccharides included crude heparin, dermatan sulfate, heparin tetrasaccharide, and heparin hexasaccharide. HL60 cells, a leukocytic cell line, were added to the COS cell cultures 30 minutes after the polysaccharides were added and incubated for 30 minutes. The coverslips were then washed with media to remove unbound cells and COS cells with three or more HL60 cells bound (rosettes) were counted using phase contrast microscopy.
Briefly, subconfluent monolayers were incubated at 37° C. for 2.5 hours with Dulbecco's modified Eagle's medium (DMEM) with 10% NuSerum (Collaborative Research, Bedford, Mass.) containing 10 μg cDNA, 400 μg/mL DEAE-dextran (Sigma), and 100 μM chloroquine diphosphate (Sigma). […] HL60 cell adhesion was quantitated as number of HL60 rosettes (2 or more cells bound) per 100 transfected COS cells. Number of transfected COS was determined using mAbs specific for E-, P-, and L-selectin (see below) followed by secondary reaction with a fluorescein-conjugated anti-immunoglobulin antibody (Cappel, Durham, N.C.). […]

L-selectin-Ig [2] = experiment: LS180 colon cancer cell adhesion to immobilized L-selectin-Ig; format: cell-based; conditions: FIG. 5
Protocol: (§1) The colon carcinoma cell line, LS180, is a useful model for studying selectin-dependent adhesion since it binds to all three selectins. E-, P-, and L-selectin-Ig were immobilized on microwell (Terasaki) plates coated with protein A. Five μl of buffer containing crude heparin, di-, tetra- or hexasaccharide heparin fragments or antibody (as described above) was incubated for 20 minutes at 4° C. Five μl containing 5000 LS180 cells was added for 30 minutes at 4° C. to allow adhesion to occur. The wells were then washed, fixed with glutaraldehyde, and the bound cells counted by microscopic observation.

P-selectin-Ig [3] = experiment: LS180 colon cancer cell adhesion to immobilized P-selectin-Ig; format: cell-based; conditions: FIG. 5
Protocol: as §1

L-selectin-Ig [4] = experiment: Competition ELISA, L-selectin-Ig binding to BSA-sLe^x; conditions: for inhibition of L-selectin-Ig binding to BSA-sLe^x (in words): competitive ELISA, FIG. 8
E-selectin-Ig [5] = experiment: LS180 colon cancer cell adhesion to immobilized E-selectin-Ig; format: cell-based; conditions: FIG. 5
Protocol: as §1

P-selectin-Ig [6] = experiment: Competition ELISA, P-selectin-Ig binding to BSA-sLe^x; conditions: Table 1, P-selectin; approximate IC50 values
Protocol: (§2) Briefly, microtiter plates were coated with neoglycoprotein BSA-sLe^x, BSA-sLe^a, (Chembiomed, Alberta, CAN) or unconjugated BSA (0.11 μg/well) in 50 mM carbonate bicarbonate buffer, pH 9.5. Plates were blocked with 20 mg/ml BSA in ELISA buffer (150 mM NaCl, 20 mM HEPES, 2 mM CaCl2, 0.25 mM thimerosal, pH 7.4). E- and P-selectin-Ig fusion proteins (20 nM) were coincubated in the coated, blocked microtiter wells with serially diluted heparin fragments (typically 0-1000 μg/ml) in ELISA buffer containing 10 mg/ml BSA for three hours at room temperature. […] Color development was stopped in the linear range (typically after 4-16 minutes) using 5 μl 4 NH2 SO4, and endpoint optical density measured at 490 nm.

E-selectin-Ig [7] = experiment: Competition ELISA, E-selectin-Ig binding to BSA-sLe^x
Protocol: as §2

P-selectin [8] = conditions: Larsen, et al.; cited from earlier work
L-selectin-Ig [9] = conditions: 11 mM; cited from earlier work
L-selectin-Ig [10] = conditions: Table 1, L-selectin; footnote: Foxall, et al., supra; cited from earlier work
L-selectin-Ig [11] = conditions: 5 mM; cited from earlier work

O=C(O)C1=C[C@H](O)[C@@H](OS(=O)(=O)O)[C@H](O[C@H]2[C@H](O)[C@@H](NS(=O)(=O)O)C(O)O[C@@H]2COS(=O)(=O)O)O1 (some centres unmarked) [Di, UA2Sα1-4GIcNS6S]
blocking activity in the COS cell adhesion assays (in words) (P-selectin [1]): little blocking activity | adhesion of LS180 cells to plates coated with L-selectin-Ig (in words) (L-selectin-Ig [2]): no effect | adhesion of LS180 cells to plates coated with P-selectin-Ig (in words) (P-selectin-Ig [3]): no effect | IC50, inhibition of L-selectin-Ig binding to BSA-sLe^x (L-selectin-Ig [4]; Table 1, L-selectin, approximate IC50 values): > 1000 µg/mL | inhibition of L-selectin-Ig binding to BSA-sLe^x (in words) (L-selectin-Ig [4]; listed as tris-sulfated heparin disaccharide): some inhibition | inhibition of L-selectin-Ig binding to BSA-sLe^x (in words) (L-selectin-Ig [4]; listed as trisulfated disaccharide fragment of heparin): somewhat effective | adhesion of LS180 cells to plates coated with E-selectin-Ig (in words) (E-selectin-Ig [5]): no effect | IC50, inhibition of P-selectin-Ig binding to BSA-sLe^x (P-selectin-Ig [6]): > 1000 µg/mL

O=C(O)C1=C[C@H](O)[C@@H](OS(=O)(=O)O)[C@H](O[C@H]2[C@H](O)[C@@H](NS(=O)(=O)O)[C@@H](O[C@H]3[C@H](O)[C@@H](OS(=O)(=O)O)[C@H](O[C@H]4[C@H](O)[C@@H](NS(=O)(=O)O)C(O)O[C@@H]4COS(=O)(=O)O)O[C@H]3C(=O)O)O[C@@H]2COS(=O)(=O)O)O1 (some centres unmarked) [F4, ΔUA2Sα1-4DGIcNS6Sα1-4LIdoA2Sα1-4DGIcNS6S]
IC50, inhibition of L-selectin-Ig (L-selectin-Ig [4]; competition ELISA, FIG. 12): 61 µg/mL | IC50 (L-selectin-Ig [4]; competition ELISA, FIG. 12, read-out: IC50, inhibition of L-selectin-Ig): 46 µM | activity relative to the size fractionated tetrasaccharide mixture (L-selectin-Ig [4]; competition ELISA, L-selectin-Ig): 2-4 fold | activity against L-selectin relative to sLe^x in non-cellular assays (L-selectin-Ig [4]; non-cellular assays, F4 vs sLe^x): over 100 fold | activity against E-selectin-Ig (in words) (E-selectin-Ig [7]; concentrations up to 1 mM): no activity

CC(=O)N[C@H]1[C@H](O[C@H]2[C@@H](O)[C@@H](CO)O[C@@H](O[C@H]3[C@H](O)[C@@H](O)C(O)O[C@@H]3CO)[C@@H]2O)O[C@H](CO)[C@@H](O[C@@H]2O[C@H](CO)[C@H](O)[C@H](O)[C@H]2O)[C@@H]1O[C@@H]1O[C@@H](C)[C@@H](O)[C@@H](O)[C@@H]1O (some centres unmarked) [LNF-III]
P-selectin-dependent rosetting of activated platelets to leukocytes (in words) (P-selectin [8]): blocked

CC(=O)NC1C(O)CC(OC2C(O)C(CO)OC(OC3C(CO)OC(O)C(NC(C)=O)C3OC3OC(C)C(O)C(O)C3O)C2O)(C(=O)O)OC1C(O)C(O)CO (centres unmarked) [sLex, Neu5Acα2-3Galβ1-4(Fucα1-3)GIcNAc, reference compound]
block of L-selectin-Ig binding to glycam-1 (L-selectin-Ig [9]): approximately 60% | IC50, inhibition of L-selectin-Ig binding (L-selectin-Ig [10]): 4100 µg/mL | activity against L-selectin-Ig binding (in words) (L-selectin-Ig [4]; concentrations of up to 1 mM): no measurable activity | IC50 (E-selectin-Ig [7]; read-out: IC50, E-selectin-Ig binding to immobilized BSA-sLe^x): 510 ± 60 µM | block of L-selectin-Ig binding to immobilized sLe^x glycolipid (L-selectin-Ig [11]): approximately 50% | IC50, inhibition of P-selectin-Ig binding to BSA-sLe^x (P-selectin-Ig [6]): > 1000 µg/mL
